Assay results published in article PMC12785453, “Oral Fluid Concentrations and Pharmacological Effects of Clephedrone and Methylone in Humans” (International Journal of Molecular Sciences, 2025).

Key:
healthy volunteers [1] = test: Physiological effects (SBP, DBP, HR, T), naturalistic observational clephedrone study; assay type: in vivo, humans
Excerpt: (§1) The study evaluating the acute effects of clephedrone was designed as a non-controlled, prospective, observational, and naturalistic study. The procedures and evaluations included in this study have been described in previous studies evaluating other synthetic cathinones (mephedrone, methylone, alpha-PVP, NEP, HEXEN), phenethylamines (2C-B and 2C-E), or synthetic cannabinoids (JWH-122, JWH-210, UR-144).
(§2) This study consisted of one experimental session in which participants (N = 8; 6 women, 2 men) selected their oral dose of clephedrone based on their drug use experience and preferences. According to their dose selection, 3 women and 1 man ingested 100 mg of clephedrone, while the remaining 3 women and 1 man opted for a higher dose of 150 mg. […] Participants were recruited by word of mouth by the harm reduction organization Energy Control in Barcelona (Associació Benestar i Desenvolupament, ABD).
Participants of the naturalistic clephedrone study were summoned at 15:00 h at the private club where sessions were carried out. The club remained closed to the public until the end of the session, approximately at 21:00 h. As a naturalistic study, participants were left free to talk, read, play games, or listen to music in the time between study evaluations. To avoid possible influences between participants, they were asked to refrain from talking about the effects of the self-administered substance. The experimental sessions of the controlled pilot trial were carried out at the Clinical Research Unit (UPIC) of the Germans Trias i Pujol hospital, where participants were summoned at 7:45 a.m. after fasting overnight and remained there for approximately 11 h.
In the naturalistic clephedrone study, non-invasive systolic blood pressure (SBP), diastolic blood pressure (DBP), and heart rate (HR) were assessed, while subjects remained seated with an automatic Omron monitor (Omron, Healthcare, Kyoto, Japan) at baseline, 0.50, 1, 1.5, 2, 3, 4 and 5 h (h) after self-administration. Forehead cutaneous temperature was determined at the same time points using a cutaneous infrared thermometer.
(§3) For statistical analysis, values of physiological (SBP, DBP, HR, and T) and subjective effects (VAS, ARCI, and VESSPA-SSE) were baseline–adjusted. Maximum effects (Emax) and the time needed to reach maximum effects (Tmax) were determined, and the area under the curve up to 5 h (AUC0–5h) for clephedrone and up to 6 h (AUC0–6h) for methylone was calculated using the trapezoidal rule. Emax and AUC values are presented as mean ± standard deviation, whereas Tmax is presented in median (range).
(§4) To find possible significant changes through the time course compared to baseline, a Dunnett multiple comparison test was carried out to compare each time point with baseline in both drug conditions. For clephedrone the comparisons were 0–0.5 h, 0–1 h, 0–1.5 h, 0–2 h, 0–3 h, 0–4 h and 0–5 h, and for methylone this analysis included 0–0.25 h, 0–0.5 h, 0–0.75 h, 0–1 h, 0–1.5 h, 0–2 h, 0–3 h, 0–4 h and 0–6 h. Given their different study designs, no comparative analysis between the time courses of both synthetic cathinones was conducted.

healthy volunteers [2] = test: Subjective effects, ARCI short form, clephedrone study; assay type: in vivo, humans; conditions: 100 or 150 mg oral, n=8
Excerpt: as §1, §2
Subjective effects were evaluated with visual analog scales (VAS), the short form of the Addiction Research Center Inventory (ARCI), and the Evaluation of Subjective Effects of Substances with Abuse Potential questionnaire (VESSPA-SSE). In addition, the Sensitivity to Drug Reinforcement Questionnaire (SDRQ) and a pharmacological identification class questionnaire were used in the controlled study administering methylone.
The validated ARCI 49-item short form was used to evaluate and discriminate the subjective following five subscales that correspond to different classes of drugs of abuse: pentobarbital-chlorpromazine-alcohol group (PCAG) is susceptible to sedative effects, morphine-benzedrine group (MBG) is susceptible to euphoric effects, lysergic acid diethylamide (LSD) is susceptible to dysphoria and somatic symptoms, benzedrine (BG) is susceptible to intellectual efficiency and energy, and amphetamine (A) is susceptible to amphetamine-like effects.
Participants included in the naturalistic clephedrone study completed VAS at baseline, 0.50, 1, 1.5, 2, 3, 4, and 5 h, and ARCI and VESSPA at baseline, 1, 2, 3, 4, and 5 h after self-administering clephedrone. In the controlled study, VAS was performed at baseline and 0.25, 0.50, 0.75, 1, 1.5, 2, 3, 4, 6, 8, 10, and 24 h, and ARCI and VESSPA at baseline and 1, 2, 3, 4, 6, 8, and 10 h after administering methylone. Participants completed SDRQ and VAS sexual desire and arousal at baseline, 1 and 10 h, and the pharmacological class identification questionnaire at 8 h.
as §3, §4

[3] = 100 or 150 mg oral, n=8, listed as clephedrone
[4] = AUC0–5h, 100 or 150 mg oral, n=8

CNC(C)C(=O)c1ccc(Cl)cc1 (stereo not shown) [Clephedrone, 4-chloromethcathinone]
Onset of cardiovascular effects after self-administration (healthy volunteers [1]; 100 or 150 mg oral): 2 h
Tmax of maximum effects on SBP, DBP and HR (healthy volunteers [1]; 100 or 150 mg oral): 2.5 to 3.0 h
DBP Emax (healthy volunteers [1]; 100 or 150 mg oral, n=8): 13.63 ± 11.74 mmHg
HR Emax (healthy volunteers [1]; 100 or 150 mg oral, n=8): 17.19 ± 25.17 bpm
SBP Emax (healthy volunteers [1]; 100 or 150 mg oral, n=8): 16.81 ± 13.11 mmHg
DBP Emax (healthy volunteers [1]; [3]): 13.6 mmHg
HR Emax (healthy volunteers [1]; [3]): 17.19 bpm
HR Tmax (healthy volunteers [1]; [3]): 3 h
SBP Emax (healthy volunteers [1]; [3]): 16.81 mmHg
DBP AUC0-5/6 h (healthy volunteers [1]; [4]): 32.64 ± 22.06 mmHg·h
HR AUC0-5/6 h (healthy volunteers [1]; [4]): 37.20 ± 40.72 bpm·h
SBP AUC0-5/6 h (healthy volunteers [1]; [4]): 41.77 ± 13.86 mmHg·h
T AUC0-5/6 h (healthy volunteers [1]; AUC0–5h, forehead cutaneous temperature, 100 or 150 mg oral, n=8): 1.25 ± 1.05 °C·h
Tolerability, serious adverse events (healthy volunteers [1]; all administered doses (100 or 150 mg oral)): well tolerated
T Emax (healthy volunteers [1]; forehead cutaneous temperature, 100 or 150 mg oral, n=8): 0.63 ± 0.35 °C
ARCI A (amphetamine-like effects) Emax (healthy volunteers [2]): 5.88 ± 0.99 points
ARCI BG (intellectual efficiency) Emax (healthy volunteers [2]): 4.13 ± 0.99 points
ARCI LSD (dysphoria) Emax (healthy volunteers [2]): 1.25 ± 2.19 points
ARCI MBG (euphoria) Emax (healthy volunteers [2]): 12.13 ± 2.03 points
ARCI PCAG (sedation) Emax (healthy volunteers [2]): 0.88 ± 4.19 points
ARCI A (amphetamine-like effects) AUC0-5/6 h (healthy volunteers [2]; AUC0–5h): 18.75 ± 3.54 points·h
ARCI BG (intellectual efficiency) AUC0-5/6 h (healthy volunteers [2]; AUC0–5h): 10.56 ± 5.30 points·h
ARCI LSD (dysphoria) AUC0-5/6 h (healthy volunteers [2]; AUC0–5h): 1.81 ± 4.39 points·h
ARCI MBG (euphoria) AUC0-5/6 h (healthy volunteers [2]; AUC0–5h): 37.56 ± 11.83 points·h
ARCI PCAG (sedation) AUC0-5/6 h (healthy volunteers [2]; AUC0–5h): –3.31 ± 5.44 points·h
